# Experimental data reported in patent US20190053492A1, “SUBSTITUTED PYRIDINE COMPOUNDS AS PESTICIDES” (Bayer CropScience Aktiengesellschaft, priority 2016, published 2019).
# Where two headings read alike, the source gives them in different places.
# Columns and labels:
# [1] = log P by HPLC on reversed-phase column (C 18), EEC Directive 79/831 Annex V.A8; assay type: physicochemical; settings: 55° C.; for LOGP_HCOOH: log P (HCOOH); for chromatographic logP: reversed-phase HPLC column (C 18)
# Description: Temperature: 55° C. […] Called log P (HCOOH) in the table. […] Called log P (neutral) in the table.
# [2] = test system: Spodoptera frugiperda; assay: Spodoptera frugiperda spray test; assay type: in vivo; settings: after 7 days, maize leaf discs; for pest or weed control at 100 g/ha / pest or weed control at 500 g/ha: Spodoptera frugiperda, foliar, 168 h, read-out: efficacy (caterpillars killed)
# Description: Spodoptera frugiperda—Spray Test
# Solvent: 78.0 parts by weight of acetone • • 1.5 parts by weight of dimethylformamide
# Emulsifier: alkylaryl polyglycol ether
# To produce a suitable active ingredient formulation, 1 part by weight of active ingredient is dissolved with the specified parts by weight of solvent and made up with water containing an emulsifier concentration of 1000 ppm until the desired concentration is attained. To produce further test concentrations, the formulation is diluted with emulsifier-containing water.
# Leaf discs of maize (Zea mays) are sprayed with an active ingredient formulation of the desired concentration and, after drying, populated with caterpillars of the armyworm (Spodoptera frugiperda).
# After 7 days, the efficacy in % is determined. 100% means that all the caterpillars have been killed; 0% means that no caterpillar has been killed.
# [3] = acidic range pH 2.7, 0.1% aqueous formic acid and acetonitrile, reversed-phase column (C 18)
# [4] = log P, neutral range, HPLC on reversed-phase column (C 18)
# [5] = acidic range at pH 2.7, 0.1% aqueous formic acid and acetonitrile, HPLC on reversed-phase column (C 18)
# [6] = pH 2.7, LC-MS acidic range, pH 2.7, 0.1% formic acid/acetonitrile, read-out: log P (acidic) / log P (HCOOH)
# [7] = pH 7.8, LC-MS neutral range, pH 7.8, ammonium hydrogencarbonate/acetonitrile, read-out: log P (neutral)
SMILES,"LOGP_HCOOH [1, 3]","LOGP_NEUTRAL [1, 4]","LOGP_HCOOH [1, 5]",efficacy (caterpillars killed) ([2]; application rate 500 g/ha),efficacy (caterpillars killed) ([2]; application rate 100 g/ha),other results
O=C(NC1CCC1)c1cc(-c2ccc(C(F)(F)F)cc2)cc(NC(=O)C2CC2)n1 [Example I-033],3.88,3.80,,100%,,
N#Cc1ccc(CNC(=O)c2cc(-c3ccc(C(F)(F)F)cc3)cc(NC(=O)c3ccc(Cl)cc3)n2)cc1 [Example I-023],4.77,4.66,,83%,,
O=C(NCc1cccc(Cl)c1)c1cc(-c2ccc(C(F)(F)F)cc2)cc(NC(=O)C2CC2)n1 [Example I-006],4.49,4.43,,100%,,
N#CC1(NC(=O)c2cc(-c3ccc(OC(F)(F)F)cc3)cc(NC(=O)C3CC3)n2)CCOCC1 [Example I-134],,,3.58,100%,83%,
O=C(NCc1cc(F)c(Cl)cc1Cl)c1cc(-c2ccc(OC(F)(F)F)cc2)cc(NC(=O)C2CC2)n1 [Example I-063],5.20,5.07,,100%,,
N#Cc1ccc(CNC(=O)c2cc(-c3ccc(OC(F)F)cc3)cc(NC(=O)C3CC3)n2)cc1 [Example I-029],3.28,3.21,,83%,,
COc1ccc(CNC(=O)c2cc(-c3ccc(OC(F)(F)F)cc3)cc(NC(=O)C3CC3)n2)cc1 [Example I-083],4.22,4.05,,100%,83%,
O=C(NCc1ccc(Cl)cc1Cl)c1cc(-c2ccc(C(F)(F)F)cc2)cc(NC(=O)C2CC2)n1 [Example I-010],5.00,4.89,,100%,,
COC(=O)C(C)NC(=O)c1cc(-c2ccc(OC(F)(F)F)cc2)cc(NC(=O)C2CC2)n1 (stereo not shown) [Example I-136],,,3.68,100%,,
O=C(NCCCc1ccc(C(F)(F)F)cc1)c1cc(-c2ccc(C(F)(F)F)cc2)cc(NC(=O)C2CC2)n1 [Example I-058],4.94,4.79,,100%,,
CN(C(=O)c1cc(-c2ccc(C(F)(F)F)cc2)cc(NC(=O)C2CC2)n1)c1cccnc1 [Example I-034],2.73,2.72,,100%,,
N#Cc1ccc(CNC(=O)c2cc(-c3ccc(OC(F)(F)F)c(F)c3)cc(NC(=O)C3CC3)n2)cc1 [Example I-121],,3.83,3.94,100%,83%,
CCC(C#N)(CC)NC(=O)c1cc(-c2ccc(OC(F)(F)F)cc2)cc(NC(=O)C2CC2)n1 [Example I-139],,,4.28,100%,,
O=C(NCc1cc(F)c(Cl)cc1Cl)c1cc(-c2ccc(C(F)(F)F)cc2)cc(NC(=O)C2CC2)n1 [Example I-059],5.09,4.93,,100%,,
"COC(=O)N(Cc1ccc(C#N)cc1)C(=O)c1cc(-c2ccc(OC(F)(F)F)cc2)cc(NC(=O)C2CC2)n1 [Example I-231, Methyl (4-cyanobenzyl)({6-[(cyclopropylcarbonyl)amino]-4-[4-(trifluoromethoxy)phenyl]pyridin-2-yl}carbonyl)carbamate]",,4.43,4.41,,,"chromatographic logP [1, 6]: 4.41; chromatographic logP [1, 7]: 4.43; pest or weed control at 100 g/ha ([2]; application rate 100 g/ha): 100%; pest or weed control at 500 g/ha ([2]; application rate 500 g/ha): 100%"
N#Cc1ccc(CNC(=O)c2cc(-c3ccc(OC(F)(F)F)cc3Cl)cc(NC(=O)C3CC3)n2)cc1 [Example I-122],,3.99,4.18,100%,100%,
O=C(NCC1CCC1)c1cc(-c2ccc(C(F)(F)F)cc2)cc(NC(=O)C2CC2)n1 [Example I-049],4.21,4.10,,83%,,

# Second part, led by results:
"LOGP_HCOOH [1, 3]","LOGP_NEUTRAL [1, 4]","LOGP_HCOOH [1, 5]",SMILES,efficacy (caterpillars killed) ([2]; application rate 500 g/ha),efficacy (caterpillars killed) ([2]; application rate 100 g/ha),other results
,4.24,4.32,CC1(NC(=O)c2cc(-c3ccc(OC(F)(F)F)cc3)cc(NC(=O)C3CC3)n2)CSC1 [Example I-163],100%,,
,4.55,4.68,O=C(NCC1CCCC1)c1cc(-c2ccc(OC(F)(F)F)cc2)cc(NC(=O)C2CC2)n1 [Example I-170],100%,83%,
4.45,,,N#Cc1ccc(CNC(=O)c2cc(-c3ccc(C(F)(F)C(F)(F)F)c(Cl)c3)cc(NC(=O)C3CC3)n2)cc1 [Example I-273],100%,,
,4.24,4.42,N#Cc1ccc2c(c1)CCC2NC(=O)c1cc(-c2ccc(OC(F)(F)F)cc2)cc(NC(=O)C2CC2)n1 (stereo not shown) [Example I-164],100%,100%,
,4.02,4.17,"CC(NC(=O)c1cc(-c2ccc(OC(F)(F)F)cc2)cc(NC(=O)C2CC2)n1)c1ccc(C#N)cc1 (single isomer, unassigned) [Example I-219]",83%,,
,4.51,,N#Cc1ccc(CNC(=O)c2cc(-c3ccc(OC(F)(F)F)cc3)cc(NC(=O)C3CCCC3)n2)cc1 [Example I-207],100%,,
,3.75,3.85,N#CC1CCC(CNC(=O)c2cc(-c3ccc(OC(F)(F)F)cc3)cc(NC(=O)C3CC3)n2)CC1 (stereo not shown) [Example I-198],100%,100%,
,3.91,4.01,COC(C)C(=O)Nc1cc(-c2ccc(OC(F)(F)F)cc2)cc(C(=O)NCc2ccc(C#N)cc2)n1 (stereo not shown) [Example I-223],100%,,
,,3.24,N#Cc1ccc(CNC(=O)c2cc(-c3ccc(C(F)(F)F)nc3F)cc(NC(=O)C3CC3)n2)cc1 [Example I-143],,100%,
4.25,,,N#Cc1ccc(CNC(=O)c2cc(-c3ccc(OC(F)(F)F)cc3)cc(NC(=O)c3ccc(Cl)nc3)n2)cc1 [Example I-256],100%,,"LOGP_NEUTRAL ([1]; log P (neutral), HPLC reversed-phase column (C 18)): 4.20"
,5.43,5.54,"N#Cc1ccc(CNC(=S)c2cc(-c3ccc(OC(F)(F)F)cc3)cc(NC(=S)C3CC3)n2)cc1 [Example I-181, N-(4-Cyanobenzyl)-6-[(cyclopropylcarbonothioyl)amino]-4-[4-(trifluoromethoxy)phenyl]pyridine-2-carbothioamide]",,,"chromatographic logP [1, 6]: 5.54; chromatographic logP [1, 7]: 5.43; pest or weed control at 100 g/ha ([2]; application rate 100 g/ha): 100%; pest or weed control at 500 g/ha ([2]; application rate 500 g/ha): 100%"
4.34,,,N#Cc1ccc(CNC(=O)c2cc(-c3cc(F)c(C(F)(F)C(F)(F)F)cc3Cl)cc(NC(=O)C3CC3)n2)cc1 [Example I-269],83%,,
,4.85,4.97,O=C(NCC1CCC(C(F)(F)F)CC1)c1cc(-c2ccc(OC(F)(F)F)cc2)cc(NC(=O)C2CC2)n1 (stereo not shown) [Example I-156],100%,100%,
